The values below come from patent US11559536B2, “Compositions and methods for the treatment of inflammation in urological pathology” (Duke University, priority 2019, dated 2023).

In data set [1] the test system is caspase-1 (inflammasome activation) in urothelial cells. Kind of data set: Caspase-1 activity in isolated mouse urothelial cells treated with diabetic DAMPS in vitro. The note with it: DAMP 24 h (ATP 1 h).
Data set [2] deals with caspase-1 activation in urothelial cells. Kind of data set: Caspase-1 assay in isolated rat urothelial cells treated with stone DAMPs, with or without inhibitors. The note with it: for maximal response of caspase-1 activation: normalized to 1.25 mM ATP 1 h; for concentration sufficient to completely suppress caspase-1 activation in MSU-treated cells: 1.25 μg/mL MSU 24 h.
Method: Briefly, rats were sacrificed and the bladders removed and placed in sterile PBS. Bladders were then inverted over an 18-gauge blunt tip needle, inflated with PBS, and a purse string suture was used to tie off the bladder. The inflated bladder was then submerged in Collagenase P (1 mg/ml in complete media) and shaken for 1 hour at 37° C. […] Media was removed and replaced with fresh media (90 μL for agonist studies, 80 μL for inhibitor studies) just prior to the start of experimental treatments.
Using PBS (for CPPD) or complete media (for MSU), 1:2 serial dilutions were prepared. Wells were then treated with 10 μL of the appropriate dilution of stone DAMP for a final volume of 100 μL. After treatment, cells were incubated for another 24 hours at 37° C.
For inhibition response studies, the general ROS scavenger N-acetylcysteine was prepared to the stock concentration of 5 mM for MSU treatment and to 50 mM for CPPD treatment. Prior to treatment, the stock concentration of NAC was buffered to pH 7.2. […] Using complete media for NAC and PBS for Verapamil, 1:2 serial dilutions were prepared. Cells were treated with 10 μL of NAC or Verapamil and incubated at 37° C. for 1 or 4 hours, respectively. […] Plates were then incubated for an additional 24 hours at 37° C.
Briefly, media was removed and cells lysed in 50 μl lysis buffer (10 mM MgCl2 and 0.25% Igepal CA-630) for 5 minutes. An additional 50 μL of storage buffer (40 mM HEPES (pH 7.4), 20 mM NaCl, 2 mM EDTA and 20% glycerol) was added, and the plates frozen at −80° C. until use (>30 minutes). […] Plates were then incubated in the dark for 1 hour at 37° C. with mild shaking. Florescence was then measured (excitation 400 nm, emission 505 nm).
For data set [3] the following is noted: cited from earlier work.
Data set [4] has as its system BOO. Kind of data set: Bladder weight after bladder outlet obstruction (BOO). The note with it: 12 weeks of BOO; glyburide 50 mg 21-day slow release pellet.
Method: For most studies rats were assigned to 4 groups; 1) Control, 2) Sham, 3) BOO or 4) BOO+glyburide (Gly). […] For Sham and all BOO groups, animals were anesthetized [ketamine hydrochloride (90 mg/kg), xylazine (10 mg/kg); i.p.] and a 1 mm o.d. catheter (P50 tubing) inserted transurethrally. BOO was created by urethral ligation over a 1 mm catheter. A 5-0 silk suture was passed around the urethra and tied securely for BOO and loosely for Sham. The catheter was removed and the abdominal wall closed. For BOO+Gly, a subcutaneous pocket was made on the side of the neck and a single 50 mg, 21-day slow release pellet (Innovative Research of America, Sarasota, Fla.) inserted and the incision closed. A new pellet was placed (contralateral side) after 21 days. Sides were alternated thereafter.
Bladders from the various groups indicated in FIG. 18 were weighed when they were removed for the various endpoints in this experiment.
In data set [5] the test system is BOO. Description: Density of Ki-67+ proliferating cells in hippocampus after BOO. The note with it: 12 weeks of BOO; glyburide pellet. Type of data set: in vivo, rat. The method, then: (§1) Sides were alternated thereafter.
(§2) Brains were fixed (10% neutral buffered formalin; 48 h, rt) and grossly cut (coronally) to the hippocampus before being embedded in paraffin with the plane of the hippocampus on the block face. Citrate antigen retrieval was used prior to staining 10 μm coronal sections with anti-IbA1/AIF1 (1:500) (NBP2-19019; Novus Biologicals, Centennial, Colo.) or Anti-Ki67 (1:500) (ab15580; Abcam, Cambridge, Mass.) via standardard methodology. IbA1 was visualized via HRP development (Vectastain ABC Kit; Vector, Burlingame, Calif.), biotinylated secondary antibody provided). Ki-67 was visualized using a goat anti-rabbit secondary antibody conjugated to Alexa Fluor 488 (111-545-144; Jackson ImmunoResearch Labs, West Grove, Pa.). […]
(§3) A Zeiss Axio Imager 2 microscope (Zeiss, Oberkochen, Germany) running Zen software (Zeiss) using the tiling and stitching feature was used to scan one entire hemisphere. […] Slides were quantitated by a researcher blinded to the groups. For microglia, we demarcated 600,000-700,000 μm^2 of the fascia dentata, counted the number of black/brown spots with two or greater associated tendrils and calculated microglial density. For Ki-67^+ cells we demarcated the entire dentate gyrus, CA1, CA2 and CA3 regions, quantitated nuclei (DAPI^+) that were Ki-67^+ (green florescence) and calculated the density.

Data set [6] deals with BOO. Kind of data set: Evans blue assay in hippocampus after BOO. In kind it is in vivo, rat. The protocol:
as §1
Rats were weighed and then injected (i.v. 3 ml/kg) with 2% Evan's blue dye in sterile saline by an investigator blinded to the groups (Belayev et al. (1996) Brain Res 739: 88-96). After one hour, rats were euthanized and transcardially perfused with cold PBS to remove intravascular dye. The brain was isolated and the hippocampus dissected, weighed and placed into formamide (0.25 ml) overnight (56° C.). Absorbance (620 nm) was measured and compared to a standard curve to calculate pg Evans blue/μg tissue.

Data set [7] relates to BOO. Description: Density of activated microglia (IbA1/AIF1) in hippocampus after BOO. In kind it is in vivo, rat. The note with it: 12 weeks of BOO; glyburide pellet. The method, then: as §1, §2, §3
The subject of data set [8] is BOO. Kind of data set: Sucrose preference assay after BOO. Type of data set: in vivo, rat. The note with it: 12 weeks of BOO; glyburide pellet; fluoxetine ≈20 mg/kg/day in drinking water, last 4 weeks.
Data set [9] deals with BOO. Kind of data set: Open field assay after BOO. In kind it is in vivo, rat. The note with it: 12 weeks of BOO; glyburide pellet; fluoxetine ≈20 mg/kg/day in drinking water, last 4 weeks.
The conditions of data set [10]: cited from earlier work. The source holds these as a separate data set.

As to `CN(N=O)C(=O)N[C@H]1C(O)O[C@H](CO)[C@@H](O)[C@@H]1O` (mixture of isomers) [streptozotocin], the “caspase-1 activity (inflammasome activation)” value (shortened to “caspase-1 activity”) in data set [1] was “directly activates the inflammasome”.
Take `Nc1ncnc2c1ncn2[C@@H]1O[C@H](COP(=O)(O)OP(=O)(O)OP(=O)(O)O)[C@@H](O)[C@H]1O` [ATP]: the “caspase-1 activity” value in data set [1] is “elicited a classic dose response”.
Turning to `CCCCCCCCCCCCC/C=C/[C@@H](O)[C@H](CO)NC(=O)CCCCC` [C6-ceramide, N-hexanoyl-D-erythro-sphingosine], the “caspase-1 activity” value in data set [1] was “activation of caspase-1”.
The term EC50 denotes the concentration that produces a half-maximal response. `O=P([O-])([O-])OP(=O)([O-])[O-].[Ca+2].[Ca+2]` [CPPD, calcium pyrophosphate]: the “maximal response of caspase-1 activation” value in data set [2] (24 h treatment) is “approximately 50 % of the ATP response”. In addition, in [2] (Rattus norvegicus, 24 h, read-out: EC50 of caspase-1 activation), the EC50 was found to be 62.5 µg/mL.
Consider `COc1ccc(Cl)cc1C(=O)NCCc1ccc(S(=O)(=O)NC(=O)NC2CCCCC2)cc1` [GLY, glyburide], for which, in data set [3] (intact barrier), the “crossing of the blood brain barrier” value was “does not cross the blood brain barrier”. Moreover, in data set [3] (serum), the “binding in the serum” value is given as “mostly albumin-bound”. Further, the bladder weight entry in data set [4] is reported as “suppresses this increase”. Besides, in data set [5], the “concentration of proliferating cells (Ki-67+) in the hippocampus” value is reported as “blocked”. Besides, the “Evan's blue dye extravasation in the hippocampus” value in data set [6] (6 weeks of BOO, glyburide treatment) is on record as “blocked”. In addition, the “leakage of Evan's blue into the hippocampus” value in [6] (12 weeks of BOO, glyburide pellet) was “reduced back to control levels”. For the same molecule, the “density of activated microglia in the hippocampus” value in data set [7] was “reduced back to control levels”. Moreover, the sucrose preference result in data set [8] is on record as “restored”. In addition, the “open field: time exploring the middle of the field” value in data set [9] was “restored this behavior”.
Consider `O=c1[nH]c(=O)c2[nH]c([O-])nc2[nH]1.[Na+]` [MSU, monosodium urate], for which the “caspase-1 activity” value in data set [1] is given as “activation of caspase-1”. Also, in [2] (24 h treatment of rat urothelial cells), the “EC50 of caspase-1 activation” value was 0.156 µg/mL. Besides, in data set [2] (24 h treatment), the “maximal response of caspase-1 activation” value was 25 % of the ATP response.
Turning to `O=S(=O)([O-])CCS.[Na+]` [Mesna, 2-mercaptoethane sulfonate sodium], the “effects on bone marrow, hepatic, renal or CNS function” value in data set [10] (doses up to 100 mg/kg) is “no apparent effects on bone marrow, hepatic, renal or CNS function”. Further, the fate in plasma result in [10] (only a very small portion remaining in circulation) is on record as “rapid oxidation in plasma”.
As for `CC(=O)N[C@@H](CS)C(=O)O` [NAC, N-acetylcysteine], in [2], the “concentration sufficient to completely suppress caspase-1 activation in MSU-treated cells” value was 500 µM. Besides, the “concentration sufficient to completely suppress caspase-1 activation in CPPD-treated cells” value in data set [2] (62.5 μg/mL CPPD 24 h, NAC 1 h before) was found to be 5 mM.
What is called IC50 is the concentration that inhibits the measured activity by half. `COc1ccc(CCN(C)CCCC(C#N)(c2ccc(OC)c(OC)c2)C(C)C)cc1OC` (stereo not shown) [Verapamil]: the “concentration sufficient to completely suppress caspase-1 activation in MSU-treated cells” value in [2] came to 150 µM. Moreover, the IC50 in [2] (Rattus norvegicus, read-out: IC50 of caspase-1 activation in CPPD-treated cells) worked out at 100 µM.
For `O=C([O-])C(=O)[O-].[Ca+2]` [calcium oxalate], the “caspase-1 activation in urothelial cells” value in data set [2] (24 h treatment) is reported as “activates caspase-1 in urothelial cells in a dose-dependent manner”.
`CNCCC(Oc1ccc(C(F)(F)F)cc1)c1ccccc1` (stereo not shown) [fluoxetine]: the sucrose preference result in data set [8] is on record as “restored sucrose preference back to levels not statistically different from control”. In data set [9], the “open field: time exploring the middle of the field” value is “restored the exploratory behavior of these rats back to levels not statistically different from control”.
In the case of AGES, in data set [1], the “caspase-1 activity” value was “activation of caspase-1”.

B1: HMGB-1: high mobility group box 1 protein (ProSci), diabetic DAMP (protein, UniProt P09429 1-215, looked up)
High mobility group protein B1: MGKGDPKKPRGKMSSYAFFVQTCREEHKKKHPDASVNFSEFSKKCSERWKTMSAKEKGKFEDMAKADKARYEREMKTYIPPKGETKKKFKDPNAPKRPPSAFFLFCSEYRPKIKGEHPGLSIGDVAKKLGEMWNNTAADDKQPYEKKAAKLKEKYEKDIAAYRAKGKPDAAKKGVVKAEKSKKKKEEEEDEEDEEDEEEEEDEEDEDEEEDDDDE
Take B1: the “caspase-1 activity” value in [1] was “activation of caspase-1”.
